Experimental data from ChEMBL document CHEMBL1122421 (J Med Chem, 1983).

Biological target: Opioid receptor (Rattus norvegicus, UniProt P33533+P34975+P33535)
Test: Binding affinity against opiate receptor from rat neural membranes, using [3H]dihydromorphine as radioligand

Q: Which IC50 does the source give for `CN1CCC23c4c5ccc(O)c4O[C@H]2C(O)C=C[C@@]3(NC(=O)CBr)C1C5` (some centres not stated) here?
A: The IC50 was 15 nM.

Q: For `CN1CCC23c4c5ccc(O)c4O[C@H]2C(=O)C=C[C@@]3(NC(=O)CBr)C1C5` (some centres not stated), which IC50 is on record?
A: Its IC50 is 10 nM.
